In PubChem BioAssay AID1918995 (Molecular Pharmacology Branch, DTP, NCI, 2023):
“And” between values parts separate entries of the source, which are not always exact repeats. Equal values may be shown once.

Test system: 324938-238-R-J1-PDC complex spheroid growth, % test/control
Assay: Anticancer human tumor 324938-238-R-J1-PDC patient-derived bladder carcinoma cell line growth inhibition [AhR]
Settings: for viability, T/C: stronger effect = lower value
Method in brief: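 Agents were dosed in half-log steps down from roughly clinical Cmax, or from 10 microM where Cmax was unknown, alone and with AhR antagonists. Read-out: percent test/control growth of tumor spheroids containing HUVEC and MSC stromal cells.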

[1] = curve of first compound, second compound 0.1 µM
[2] = curve of first compound, second compound 0.316 µM
[3] = curve of first compound, second compound 1 µM
[4] = curve of first compound, second compound 3.16 µM
[5] = curve of first compound, second compound 10 µM
[6] = second compound 0.1 µM, first compound 0.0316 µM
[7] = second compound 0.1 µM, first compound 0.1 µM
[8] = second compound 0.1 µM, first compound 0.316 µM
[9] = second compound 0.1 µM, first compound 1 µM
[10] = second compound 0.1 µM, first compound 3.16 µM
[11] = second compound 0.1 µM, first compound 10 µM
[12] = second compound 0.316 µM, first compound 0.0316 µM
[13] = second compound 0.316 µM, first compound 0.1 µM
[14] = second compound 0.316 µM, first compound 0.316 µM
[15] = second compound 0.316 µM, first compound 1 µM
[16] = second compound 0.316 µM, first compound 3.16 µM
[17] = second compound 0.316 µM, first compound 10 µM
[18] = second compound 1 µM, first compound 0.0316 µM
[19] = second compound 1 µM, first compound 0.1 µM
[20] = second compound 1 µM, first compound 0.316 µM
[21] = second compound 1 µM, first compound 1 µM
[22] = second compound 1 µM, first compound 3.16 µM
[23] = second compound 1 µM, first compound 10 µM
[24] = second compound 3.16 µM, first compound 0.0316 µM
[25] = second compound 3.16 µM, first compound 0.1 µM
[26] = second compound 3.16 µM, first compound 0.316 µM
[27] = second compound 3.16 µM, first compound 1 µM
[28] = second compound 3.16 µM, first compound 3.16 µM
[29] = second compound 3.16 µM, first compound 10 µM
[30] = second compound 10 µM, first compound 0.0316 µM
[31] = second compound 10 µM, first compound 0.1 µM
[32] = second compound 10 µM, first compound 0.316 µM
[33] = second compound 10 µM, first compound 1 µM
[34] = second compound 10 µM, first compound 3.16 µM
[35] = second compound 10 µM, first compound 10 µM
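Note: spheroids exposed to agents for seven days before viability read.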

Structure (SMILES): CCN(c1cc(-c2ccc(CN3CCOCC3)cc2)cc(C(=O)NCc2c(C)cc(C)[nH]c2=O)c1C)C1CCOCC1 + CC(CO)NC(=O)c1cc(-c2ccc(Cl)cc2)nn(-c2cnn(C)c2)c1=O
- IC50 [1]: > 3 µM
- IC50 [2]: > 3 µM
- IC50 [3]: > 3 µM
- IC50 [4]: > 3 µM
- IC50 [5]: > 3 µM
- viability, T/C (second compound 0.1 µM, first compound 0.00949 µM): 105%
- viability, T/C (second compound 0.1 µM, first compound 0.03 µM): 114%
- viability, T/C (second compound 0.1 µM, first compound 0.0949 µM): 107%
- viability, T/C (second compound 0.1 µM, first compound 0.3 µM): 101%
- viability, T/C (second compound 0.1 µM, first compound 0.949 µM): 95%
- viability, T/C (second compound 0.1 µM, first compound 3 µM): 101%
- viability, T/C (second compound 0.316 µM, first compound 0.00949 µM): 102%
- viability, T/C (second compound 0.316 µM, first compound 0.03 µM): 96.3%
- viability, T/C (second compound 0.316 µM, first compound 0.0949 µM): 92.8%
- viability, T/C (second compound 0.316 µM, first compound 0.3 µM): 94.8%
- viability, T/C (second compound 0.316 µM, first compound 0.949 µM): 96.6%
- viability, T/C (second compound 0.316 µM, first compound 3 µM): 93.2%
- viability, T/C (second compound 1 µM, first compound 0.00949 µM): 88%
- viability, T/C (second compound 1 µM, first compound 0.03 µM): 92.4%
- viability, T/C (second compound 1 µM, first compound 0.0949 µM): 89.2%
- viability, T/C (second compound 1 µM, first compound 0.3 µM): 98.3%
- viability, T/C (second compound 1 µM, first compound 0.949 µM): 90.2%
- viability, T/C (second compound 1 µM, first compound 3 µM): 88.9%
- viability, T/C (second compound 3.16 µM, first compound 0.00949 µM): 79.3%
- viability, T/C (second compound 3.16 µM, first compound 0.03 µM): 80.6%
- viability, T/C (second compound 3.16 µM, first compound 0.0949 µM): 76.7%
- viability, T/C (second compound 3.16 µM, first compound 0.3 µM): 72.5%
- viability, T/C (second compound 3.16 µM, first compound 0.949 µM): 77.3%
- viability, T/C (second compound 3.16 µM, first compound 3 µM): 77.6%
- viability, T/C (second compound 10 µM, first compound 0.00949 µM): 70.4%
- viability, T/C (second compound 10 µM, first compound 0.03 µM): 69%
- viability, T/C (second compound 10 µM, first compound 0.0949 µM): 67.5%
- viability, T/C (second compound 10 µM, first compound 0.3 µM): 77.3%
- viability, T/C (second compound 10 µM, first compound 0.949 µM): 66.3%
- viability, T/C (second compound 10 µM, first compound 3 µM): 74.1%

Structure (SMILES): COc1ccc([C@@H](O)c2cc(-c3ncnc4cc(N5CCOCC5)ccc34)c(F)cc2Cl)nn1 + Cc1cncc(-c2nc(NCCc3c[nH]c4ccccc34)c3ncn(C(C)C)c3n2)c1
- IC50 [1]: 8.95 µM
- IC50 [2]: 7.37 µM
- IC50 [3]: > 10 µM
- IC50 [4]: > 10 µM
- IC50 [5]: < 0.0316 µM
- viability, T/C [6]: 152%
- viability, T/C [7]: 91.7%
- viability, T/C [8]: 96.2%
- viability, T/C [9]: 89.5%
- viability, T/C [10]: 63.5%
- viability, T/C [11]: 51.4%
- viability, T/C [12]: 116%
- viability, T/C [13]: 125%
- viability, T/C [14]: 81.6%
- viability, T/C [15]: 94.9%
- viability, T/C [16]: 81%
- viability, T/C [17]: 38.1%
- viability, T/C [18]: 137%
- viability, T/C [19]: 112%
- viability, T/C [20]: 119%
- viability, T/C [21]: 86.1%
- viability, T/C [22]: 79.2%
- viability, T/C [23]: 64.2%
- viability, T/C [24]: 108%
- viability, T/C [25]: 80.2%
- viability, T/C [26]: 86.3%
- viability, T/C [27]: 69.8%
- viability, T/C [28]: 43.4%
- viability, T/C [29]: 58.5%
- viability, T/C [30]: 3.67%
- viability, T/C [31]: 4.08%
- viability, T/C [32]: 3.62%
- viability, T/C [33]: 2.73%
- viability, T/C [34]: 3.64%
- viability, T/C [35]: 3.08%

Structure (SMILES): O=C(C=Cc1cccc(S(=O)(=O)Nc2ccccc2)c1)NO + CC(CO)NC(=O)c1cc(-c2ccc(Cl)cc2)nn(-c2cnn(C)c2)c1=O
- IC50 [1]: 3.18 µM
- IC50 [2]: 3.49 µM
- IC50 [3]: 3.18 µM
- IC50 [4]: 3.39 µM
- IC50 [5]: 3.55 µM
- viability, T/C [6]: 103%
- viability, T/C [7]: 108%
- viability, T/C [8]: 96.1%
- viability, T/C [9]: 67.4%
- viability, T/C [10]: 56.7%
- viability, T/C [11]: 3.34%
- viability, T/C [12]: 94%
- viability, T/C [13]: 92.7%
- viability, T/C [14]: 85.4%
- viability, T/C [15]: 73.5%
- viability, T/C [16]: 56%
- viability, T/C [17]: 10.6%
- viability, T/C [18]: 93.2%
- viability, T/C [19]: 93.9%
- viability, T/C [20]: 89.3%
- viability, T/C [21]: 65%
- viability, T/C [22]: 55.1%
- viability, T/C [23]: 6.82%
- viability, T/C [24]: 74.6%
- viability, T/C [25]: 83.9%
- viability, T/C [26]: 77.4%
- viability, T/C [27]: 67%
- viability, T/C [28]: 54.4%
- viability, T/C [29]: 4.74%
- viability, T/C [30]: 70.6%
- viability, T/C [31]: 78.8%
- viability, T/C [32]: 76.9%
- viability, T/C [33]: 71.6%
- viability, T/C [34]: 55.4%
- viability, T/C [35]: 2.36%

Structure (SMILES): CC1(C)CCC(CN2CCN(c3ccc(C(=O)NS(=O)(=O)c4ccc(NCC5CCOCC5)c([N+](=O)[O-])c4)c(Oc4cnc5[nH]ccc5c4)c3)CC2)=C(c2ccc(Cl)cc2)C1
- viability, T/C (compound 0.0316 µM): 87.5% and 102% and 105%
- viability, T/C (compound 0.1 µM): 125% and 98.4% and 101%
- viability, T/C (compound 0.316 µM): 93.4% and 103% and 109%
- viability, T/C (compound 1 µM): 82.8% and 94.3% and 101%
- viability, T/C (compound 3.16 µM): 104% and 90.7% and 87.7%
- viability, T/C (compound 10 µM): 114% and 59.1% and 52.6%
- IC50 (curve of compound): > 10 µM
